We go through 17 molecules from patent US8492391B2, “Substituted 6-(2-hydroxybenzylamino)purine derivatives, their use as medicaments and compositions containing these derivatives” (Univerzita Palackeho V Olomouci, priority 2009, dated 2013).

Like-named read-outs stand apart in the source and are kept apart here.

One series relates to p53. Briefly: p53-dependent transcription, β-galactosidase reporter in Arn8 cells. It counts as cell-based, human. On the set-up: key to p53 (effect): induction of p53 protein: ++: very strong; +: weak; −: no effect. The following applies: for p53 (effect): induction of p53 protein: Arn8 cells stable transfected with a β-galactosidase reporter gene; for p53 (peak concentration in μM): Arn8 cells, concentration inducing maximum of β-galactosidase activity. The source says: Protein p53, accumulated in nuclei upon treatment by the compounds, then leads to trans-activation of natural cell cycle inhibitor p21^WAF1, further blocking the cell cycle. […] This allows qualitative as well as quantitative measurement of CDK inhibitors-induced p53 transcriptional activity via β-galactosidase assay. Then, the effect will be verified in treated cells by immunoblotting of proteins expressed under the control of p53. β-galactosidase activity of human melanoma cell line Arn8 was determined as described. […] Alternatively, β-galactosidase activity was quantified by measuring fluorescence of methylumbelliferyl-β-D-galactopyranoside cleavage product. Cell lines established from the human breast carcinoma (MCF-7) and the human melanoma (Arn8) cell lines were cultured in Dubecco's Modified Eagle Medium (DMEM) supplemented with 10% foetal bovine serum.
Effects of prepared compounds on activation of p53 protein were analysed in human melanoma cell line Arn8. […] The total β-galactosidase activity in Arn8 cells was quantified using a fluorimetric assay.

In a further series the test system is β-adrenergic receptors. Description: Modulation of the activity of β-adrenergic receptors (isoproterenol-induced cAMP synthesis in C6 glioma). It counts as cell-based. The following applies: rat C6 glioma, cAMP synthesis induced by 5 μM (−) isoproterenol, 30 min; for EFFECT (modulation of the activity of β-adrenergic receptors) / EFFECT: fold activation (modulation of the activity of β-adrenergic receptors): simultaneous addition. As to the method:
Mechanism of action of novel compounds is presented on FIG. 2. […] Incubation was at 37° C. in a humidified atmosphere. Assays were performed in the logaritmic growth phase at a density of 2.5×10^5 cells/cm^2. Intracellular cAMP synthesis was induced by addition of 5 μM (−) isoproterenol. After 30 min incubation at 37° C. the medium was removed and the cellular amount of cAMP determined using the cAMP-enzyme immunoassay kit of Amersham. The I50 is determined from a dose-response curve in duplicate. The effect of several novel substituted 6-(2-hydroxybenzylamino)purine derivatives was measured after simultaneous addition with isoproterenol.
As P2Y1-like and A2 purinergic receptors, negatively and positively coupled to adenylate cyclase respectively, are present on rat C6 glioma. It has to be determined if the modulation of the synthesis of cAMP is due to inhibition of the activation of β-adrenergic receptors by isoproterenol are due to activation of purinergic receptors.

In series [1] the test system is MCF7 (human breast adenocarcinoma). Briefly: Calcein AM cytotoxicity assay, MCF7. It counts as cell-based. The following applies: MCF7, read-out: Cytotoxic activity IC50 (μM) MCF7. An excerpt: (§1) Cytotoxicity of the compounds is the major property determining their anticancer effect in vivo. One of the parameters used, as the basis for cytotoxicity assays, is the metabolic activity of viable cells. For example, a microtiter assay, which uses the Calcein AM, is now widely used to quantitate cell proliferation and cytotoxicity. For instance, this assay is used in drug screening programs and in chemosensitivity testing. Because only metabolically active cells cleave Calcein AM, these assays detect viable cells exclusively. The quantity of cleaved Calcein AM corresponds to the number of vital cells in the culture. We have been using the following cell lines: MCF7 (human breast adenocarcinoma), K562 (human chronic myelogenous leukaemia), HOS (human osteogenic sarcoma), HeLa (human cervical carcinoma), HL 60 (human promyelocytic leukaemia), G 361 (human malignant melanoma), CEM (human lymphoblastoid leukaemia). All cell lines were grown in DMEM medium (Gibco BRL) supplemented with 10% (v/v) fetal bovine serum and L-glutamine and maintained at 37° C. in a humidified atmosphere with 5% CO2. For cytotoxicity assays, 10^4 cells were seeded into each well of 96 well plate, allowed to stabilize for at least 2 h and then tested compounds were added at various concentrations ranging from 100 to 0.1 μM in triplicates. Three days after drug addition Calcein AM solution (Molecular Probes) was added and let to enter the cells for 1 hour. Fluorescence of viable cells was quantified using Fluoroskan Ascent (Microsystems).

In series [2] the test system is HOS (human osteogenic sarcoma). Description: Calcein AM cytotoxicity assay, HOS. The conditions noted are these: read-out: Cytotoxic activity IC50 (μM) HOS. It counts as cell-based.
Source text: as §1

For a further series, the target named is T1, CDK2/cyclin E (Homo sapiens, UniProt P24941).
T1 construct: made in house; host or cells: Sf9 insect cells, baculovirus co-infection
Description: CDK2/cyclin E kinase inhibition assay. It counts as biochemical. The conditions noted are these: kinase inhibitory activity, 15 μM ATP, histone substrate. The procedure:
(§2) Selected compounds were tested for CDK1/cyclin B, CDK2/cyclin E, CDK5/p25, CDK7/cyclin H and CDK9/cyclin T inhibitory activity to determine the basic relationships between their structure and the inhibitory activity. Cdk/cyclin complexes were expressed in Sf9 cells co-infected with appropriate baculoviral construct. The cells were harvested 70 hours post infection in lysis buffer (50 mM Tris pH 7.4, 150 mM NaCl, 5 mM EDTA, 20 mM NaF, 1% Tween 20, protease inhibitors) for 30 min on ice and the soluble fraction was recovered by centrifugation at 14.000 g for […]. The protein extract was stored at −80° C. until use. The final point test system for kinase activity measurement was used to carry out experiments on the kinetics under linear conditions. […] ATP and tested compound in a final volume of 20 μl, all in reaction buffer: 50 mM Hepes pH 7.4, 10 mM MgCl2, 5 mM EGTA, 10 mM 2-glycerolphosphate, 1 mM NaF, 1 mM DTT and protease inhibitors. After 30 min, the incubations were stopped by adding 5% H3PO4 and then the proteins were separated by phosphocellulose binding. The measurement of kinase inhibition employed the digital imaging analyzer BAS 1800. The kinase activity was expressed as a percentage of maximum activity and the IC50 value was determined by graphic analysis. The kinase activity is expressed as a percentage of maximum activity (FIG. 1).

A further series has as its target T2, CDK9/cyclin T (Homo sapiens, UniProt P50750).
T2 construct: made in house; host or cells: Sf9 insect cells, baculovirus co-infection
Description: CDK9/cyclin T kinase inhibition assay. It counts as biochemical. The following applies: kinase inhibitory activity, 15 μM ATP, (YSPTSPS)3 peptide substrate. As to the method: as §2

For series [3], the system named is K562 (human chronic myelogenous leukaemia). Description: Calcein AM cytotoxicity assay, K562. It counts as cell-based. The conditions noted are these: read-out: Cytotoxic activity IC50 (μM) K562.
Source text: as §1

T2 sequence (P50750 whole entry, species assumed): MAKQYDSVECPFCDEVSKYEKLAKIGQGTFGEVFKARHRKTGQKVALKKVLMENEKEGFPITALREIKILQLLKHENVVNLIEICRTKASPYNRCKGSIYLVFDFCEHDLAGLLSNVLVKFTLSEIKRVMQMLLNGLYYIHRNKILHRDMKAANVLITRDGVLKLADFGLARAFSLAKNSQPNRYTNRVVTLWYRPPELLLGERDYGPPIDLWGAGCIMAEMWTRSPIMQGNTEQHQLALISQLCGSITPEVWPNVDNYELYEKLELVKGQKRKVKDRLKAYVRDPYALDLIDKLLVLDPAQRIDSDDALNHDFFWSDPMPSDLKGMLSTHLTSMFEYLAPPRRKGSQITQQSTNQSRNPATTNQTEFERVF
T2 sequence (O60563 whole entry partner, species assumed): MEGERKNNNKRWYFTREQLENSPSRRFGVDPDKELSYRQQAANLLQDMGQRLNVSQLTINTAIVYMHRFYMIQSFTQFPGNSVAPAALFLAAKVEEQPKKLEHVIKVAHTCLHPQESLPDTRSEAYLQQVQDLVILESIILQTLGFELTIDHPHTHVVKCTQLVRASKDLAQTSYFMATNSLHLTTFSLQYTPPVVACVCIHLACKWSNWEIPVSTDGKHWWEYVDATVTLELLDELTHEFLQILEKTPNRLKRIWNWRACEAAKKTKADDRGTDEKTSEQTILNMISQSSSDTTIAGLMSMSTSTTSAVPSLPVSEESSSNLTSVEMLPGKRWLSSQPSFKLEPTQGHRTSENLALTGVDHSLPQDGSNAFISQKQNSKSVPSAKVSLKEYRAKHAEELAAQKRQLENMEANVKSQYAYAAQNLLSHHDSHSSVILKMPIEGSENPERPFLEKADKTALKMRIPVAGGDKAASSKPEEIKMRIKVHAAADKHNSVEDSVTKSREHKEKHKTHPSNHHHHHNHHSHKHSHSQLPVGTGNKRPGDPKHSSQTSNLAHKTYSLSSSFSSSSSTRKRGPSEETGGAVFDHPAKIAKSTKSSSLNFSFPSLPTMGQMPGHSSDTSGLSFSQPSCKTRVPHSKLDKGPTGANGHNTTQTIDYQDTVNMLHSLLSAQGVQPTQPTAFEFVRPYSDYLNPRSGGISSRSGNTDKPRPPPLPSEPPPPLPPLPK

As to `COc1cccc(CNc2nc(NC3CCC(N)CC3)nc3c2ncn3C(C)C)c1O` (mixture of isomers) [Compound 126, (E/Z)—N^2-(4-aminocyclohexyl)-N^6-(2-hydroxy-3-methoxybenzyl)-9-isopropyl-9H-purin-2,6-diamine], in the series with p53, the “p53 (effect): induction of p53 protein” value was “++” and the “p53 (peak concentration in μM)” value is 11.0 µM. Besides, in the series with β-adrenergic receptors, half-maximal inhibition (IC50) required 4 ± 1 µM and the “EFFECT (modulation of the activity of β-adrenergic receptors)” value is listed as “inhibition”.

As to `CCC(CO)Nc1nc(NCc2cc(Cl)ccc2O)c2ncn(C(C)C)c2n1` (stereo not drawn) [Compound 79], the IC50 is 3.5 µM in series [1] (Homo sapiens); 5.3 µM in series [2] (Homo sapiens); 0.07 µM against CDK2/cyclin E; 0.04 µM against CDK9/cyclin T; 11.9 µM in series [3] (Homo sapiens). The “p53 (effect): induction of p53 protein” value in the series on p53 was “++”. Besides, the “p53 (peak concentration in μM)” value in the series on p53 amounted to 8.0 µM. Also, in the series on β-adrenergic receptors, the “EFFECT: fold activation (modulation of the activity of β-adrenergic receptors)” value (shortened to “EFFECT: fold activation”) is 1.5-fold activation.

For the molecule `CC(C)C(CO)Nc1nc(NCc2cc(Cl)ccc2O)c2ncn(C(C)C)c2n1` (stereo not drawn) [Compound 80], the results for the IC50 against CDK2/cyclin E and against CDK9/cyclin T were 0.06 µM and 0.05 µM, respectively. Moreover, the “EFFECT: fold activation” value in the series on β-adrenergic receptors is listed as 1.8-fold activation.

In the case of `CC(C)n1cnc2c(NCc3cc(Cl)ccc3O)nc(NCC(C)(C)O)nc21` [Compound 81], the half-inhibitory concentration (IC50) on CDK2/cyclin E worked out at 0.03 µM; against CDK9/cyclin T, 0.02 µM. Further, the “EFFECT: fold activation” value in the series with β-adrenergic receptors was 1.7-fold activation.

On to `CC(C)n1cnc2c(NCc3cc(F)ccc3O)nc(NC3CCCCC3N)nc21` (stereo not drawn) [Compound 86], for which the half-inhibitory concentration (IC50) is 1.8 µM in series [1] (Homo sapiens); 3.2 µM in series [2] (Homo sapiens); 0.04 µM at CDK2/cyclin E; 0.02 µM against CDK9/cyclin T; 7.6 µM in series [3] (Homo sapiens); 8 ± 2 µM in the series with β-adrenergic receptors. The “EFFECT (modulation of the activity of β-adrenergic receptors)” value in the series with β-adrenergic receptors is reported as “inhibition”.

In the case of `CCC(CO)Nc1nc(NCc2cc(F)ccc2O)c2ncn(C(C)C)c2n1` (stereo not drawn) [Compound 89], the IC50 in series [1] (Homo sapiens) was 3.2 µM; in series [2] (Homo sapiens) it was 5.3 µM; against CDK2/cyclin E, 0.05 µM; against CDK9/cyclin T, 0.02 µM; in series [3] (Homo sapiens), 14.7 µM. Further, in the series on p53, the “p53 (effect): induction of p53 protein” value is listed as “++”. In addition, in the series on p53, the “p53 (peak concentration in μM)” value came to 6.0 µM. Also, the “EFFECT: fold activation” value with β-adrenergic receptors was 1.9-fold activation.

For `Cc1cccc(CNc2nc(NC3CCCCC3N)nc3c2ncn3C(C)C)c1O` (stereo not drawn) [Compound 105], in the series with β-adrenergic receptors, the IC50 worked out at 12 ± 4 µM and the “EFFECT (modulation of the activity of β-adrenergic receptors)” value is “inhibition”.

Regarding `Cc1ccc(O)c(CNc2nc(NC3CCC(N)CC3)nc3c2ncn3C(C)C)c1` (stereo not drawn) [Compound 106], at β-adrenergic receptors, the IC50 turned out to be 7 ± 2 µM and the “EFFECT (modulation of the activity of β-adrenergic receptors)” value is “inhibition”.

Turning to `CCC(CO)Nc1nc(NCc2cc(C)ccc2O)c2ncn(C(C)C)c2n1` (stereo not drawn) [Compound 107], the IC50 in series [1] (Homo sapiens) was 6.6 µM; in series [2] (Homo sapiens), 18 µM; against CDK2/cyclin E, 0.02 µM; in series [3] (Homo sapiens), 24.9 µM. Further, in the series on p53, the “p53 (effect): induction of p53 protein” value is listed as “++”. In addition, in the series on p53, the “p53 (peak concentration in μM)” value worked out at 6.0 µM.

On to `CC(C)C(CO)Nc1nc(NCc2cccc(O)c2O)c2ncn(C(C)C)c2n1` (stereo not drawn) [Compound 114], for which, in the series with p53, the “p53 (effect): induction of p53 protein” value is “++” and the “p53 (peak concentration in μM)” value is 12.0 µM.

On to `CCC(CO)Nc1nc(NCc2ccc(O)cc2O)c2ncn(C(C)C)c2n1` (stereo not drawn) [Compound 119], for which the IC50 in series [1] (Homo sapiens) was 4.3 µM; in series [2] (Homo sapiens) it was 8.1 µM; on CDK2/cyclin E, 0.08 µM; on CDK9/cyclin T it was 0.05 µM; in series [3] (Homo sapiens), 13 µM. Besides, the “p53 (effect): induction of p53 protein” value in the series on p53 was “+”. Besides, the “p53 (peak concentration in μM)” value in the series with p53 stood at 12.0 µM. For the same molecule, in the series on β-adrenergic receptors, the “EFFECT: fold activation” value is listed as 1.6-fold activation.

As to `CCC(CO)Nc1nc(NCc2cc(O)cc(O)c2)c2ncn(C(C)C)c2n1` (stereo not drawn) [Compound 123], the half-maximal inhibitory concentration (IC50) in series [1] is 3.2 µM; in series [2], 3.7 µM; in series [3], 5.3 µM. In the series with p53, the “p53 (effect): induction of p53 protein” value is given as “+”. Moreover, in the series with p53, the “p53 (peak concentration in μM)” value came to 11.0 µM. In the series with β-adrenergic receptors, the “EFFECT: fold activation” value is recorded as 1.7-fold activation.

For the molecule `CC(C)C(CO)Nc1nc(NCc2cc(O)ccc2O)c2ncn(C(C)C)c2n1` (stereo not drawn) [Compound 124], in the series with β-adrenergic receptors, the “EFFECT: fold activation” value was 2.1-fold activation.

Consider `COc1cccc(CNc2nc(NC3CCCCC3N)nc3c2ncn3C(C)C)c1O` (stereo not drawn) [Compound 125], for which the concentration for half-maximal inhibition (IC50) was 3.2 µM in series [1] (Homo sapiens), 0.02 µM against CDK2/cyclin E, 10.9 µM in series [3] (Homo sapiens) and 2 µM in the series with β-adrenergic receptors. Further, the “p53 (effect): induction of p53 protein” value in the series with p53 is listed as “++”. For the same molecule, in the series with p53, the “p53 (peak concentration in μM)” value worked out at 10.0 µM. The “EFFECT (modulation of the activity of β-adrenergic receptors)” value in the series with β-adrenergic receptors is “inhibition”.

In the case of `CC[C@H](CO)Nc1nc(NCc2ccccc2O)c2ncn(C(C)C)c2n1` [OCII, olomoucine II, reference compound], in the series with p53, the “p53 (effect): induction of p53 protein” value is listed as “++” and the “p53 (peak concentration in μM)” value came to 12.0 µM.

As for `Cn1cnc2c(NCc3ccccc3)nc(NCCO)nc21` [OC], the IC50 in series [1] was 133 µM. In addition, the IC50 in series [3] is 163 µM. Also, in the series on β-adrenergic receptors, the “IC50 (μM) (modulation of the activity of β-adrenergic receptors)” value is “inactive” and the “EFFECT (modulation of the activity of β-adrenergic receptors)” value was “inactive”.

In the case of `CCC(CO)Nc1nc(NCc2cc(F)ccc2O)c2ncn(C(CC)CC)c2n1` (stereo not drawn) [compound 228], the IC50 in series [1] (Homo sapiens) was 4.6 µM; in series [2] (Homo sapiens), 6.8 µM; at CDK2/cyclin E it was 0.07 µM; on CDK9/cyclin T, 0.04 µM; in series [3] (Homo sapiens), 13.2 µM.
